Read-outs that look alike come from different tables or passages of the source.
Experiments:
MRSA USA300 = test: Spread agar plates, photoinactivation of catalase with silver cation; format: cell-based, methicillin-resistant Staphylococcus aureus
E. coli BW25113 [1] = test: CFU, photoinactivation of catalase with silver cation; format: cell-based, Escherichia coli; conditions: 30 and 60 minutes
C. auris strains = test: PrestoBlue viability assay, amp B; format: cell-based, Candida auris
Salmonella enterica = conditions: ns-410 nm combined with H2O2 22 mM
From the text: (§1) CFU experiments to test the potential synergy between photoinactivation of catalase and H2O2: Overnight-cultured bacteria was centrifuged, the supernatant was discarded, and the pellet was resuspended with the same amount of PBS. The laser source used in the study is nanosecond (ns) pulsed OPO laser purchased from OPOTEK Inc, model number as Opolette HE355 LD, having the following key specifications: wavelength range, 410-2400 nm; pulse repetition rate, 20 Hz; maximum pulse energy at 460 nm, 8 mJ; pulse duration, 5 nanosecond; spectral linewidth, 4-6 cm-1; and pulse-to-pulse stability, <5%. For each bacterial strain there were four groups: untreated one, ns-410 nm-treated group, H2O2 (22 or 44 mM)-treated group, ns-410 nm plus H2O2 (22 or 44 mM)-treated group. Dose for ns-410 nm exposure was 15 J/cm^2. H2O2 was incubated with bacteria for 30 min at 37° C. with the shaking speed of 200 rpm. After incubation, bacterial burden from each group was serial diluted, inoculated onto TSA plates, then counted by enumeration of these plates.

[2] = system: stationary-phase MRSA USA300
From the text: as §1

[3] = system: stationary-phase Pseudomonas aeruginosa
From the text: as §1

Candida albicans SC5314 = system: Candida albicans SC5314
Description: CFU test to quantify the treatment efficacy: Quantification of antifungal treatment schemes were achieved as following: overnight cultured fungal specimen was washed by sterile PBS. And log-phase fungal pathogens were prepared by dilution into fresh YPD broth at a ratio of 1:50 and cultured for another 2-3 hours at 30° C. with the shaking speed of 200 rpm. After that, the fungal concentration was adjusted to be around 1×10^8 cells/ml by centrifuging or further dilution with PBS. 10 μl of the above fungal solution was exposed to 410 nm for 5 min (150 mW/cm^2). After that, the exposed sample was collected into 990 μl of sterile PBS, then supplemented with treatment agents. Later, CFU of fungal cells was enumerated by serial dilution and cultured in YPD agar plates for 48 hours.

CASC5314 = conditions: 410 nm plus low-concentration H2O2; log-phase or stationary-phase
Description: (§2) PrestoBlue viability assay: First log-phase fungal pathogens were prepared by diluting overnight-cultured fungal pathogens into fresh YPD broth at a ratio of 1:50 and cultured for another 2-3 hours at 30 C with the shaking speed of 200 rpm. After that, the fungal concentration was adjusted to be around 1×10^8 cells/ml by centrifuging or further dilution with PBS. 10 μl of the above fungal solution was exposed to 410 nm for 5 min (150 mW/cm^2). After that, the exposed sample was collected into 990 μl of sterile PBS, then supplemented with treatment agents. Aliquots were made from the above sample into a 96-well plate, with each well containing 100 μl. Then 100 μl sterile YPD broth and 23 μl of PrestoBlue were added into the same well. Fluorescence signal at 590 nm from each well was recorded in a time-course (up to 18 hours with the interval of 30 min) manner at an excitation of 560 nm. For each strain, in order to know the exact number of fungal pathogens in each well, the corresponding fluorescence signals were recorded from fungal pathogens with known numbers, however no external treatments.

clinical fungal isolates = conditions: 410 nm plus H2O2; more than twenty different clinical fungal isolates
Description: as §2

E. coli BW25113 [4] = test: CFU test of synergy between photoinactivation of catalase and ROS-generating antibiotics; format: cell-based, Escherichia coli; conditions: ns-410 nm (15 J/cm2) plus tobramycin 2 μg/ml, 4-hour incubation
Description: (§3) Then prior to any treatments, the above solution was incubated with antibiotics (10 μg/ml) for 1 hour. For each bacterial strain, four groups were tested: untreated one, ns-410 nm-treated group, antibiotic (2 μg/ml)-treated group, ns-410 nm plus antibiotic (2 μg/ml)-treated group. Dose for ns-410 nm exposure was 15 J/cm2.

[5] = system: Enterococcus faecalis NR-31970; test: CFU test of synergy between photoinactivation of catalase and ROS-generating antibiotics (catalase-negative control); format: cell-based; conditions: ns-410 nm plus tobramycin 2 μg/ml, 4-hour incubation; catalase-negative strain
Description: as §3

[6] = H2O2 22 mM after photoinactivation of catalase (15 J/cm2)

Question: Which results are given for `[Ag+]` [silver cation]?
Answer: MRSA eliminated (MRSA USA300; ns-410 nm combined with 10 μM silver cation, one hour after treatment): about 90%; antimicrobial effect (MRSA USA300; silver cation alone): does not exert any significant antimicrobial effect; killing effect (CFU ml-1) (E. coli BW25113 [1]; 0.5 μM Ag+ alone): doesn't exert any significant killing effect; reduction of bacterial burden (E. coli BW25113 [1]; CW-410 (22 J/cm^2) combined with 0.5 μM Ag+): didn't significantly reduce bacterial burden; reduction of bacterial burden (E. coli BW25113 [1]; ns-410 (22 J/cm^2) in combination with 0.5 μM Ag+): around 99%

Question: `C[C@@H]1[C@H](O)[C@@H](C)/C=C/C=C/C=C/C=C/C=C/C=C/C=C/[C@H](O[C@@H]2O[C@H](C)[C@@H](O)[C@H](N)[C@@H]2O)C[C@@H]2O[C@](O)(C[C@@H](O)C[C@@H](O)[C@H](O)CC[C@@H](O)C[C@@H](O)CC(=O)O[C@H]1C)C[C@H](O)[C@H]2C(=O)O` [amp B, amphotericin B] was tested. Which “eradication (PrestoBlue fluorescence)” value (C. auris strains; 410 nm plus amp B, same result with 410 nm without amp B, ten strains) did it give?
Answer: Its value is “total eradication”.

Question: And the “susceptibility (PrestoBlue fluorescence)” value (C. auris strains; amp B alone, without photoinactivation of catalase)?
Answer: The value was “some C. auris strains were resilient”.

Question: With `OO` [H2O2, hydrogen peroxide] as the compound, how does the enhanced killing effect (Salmonella enterica) read?
Answer: Its enhanced killing effect is “around five”.

Question: What about the “killing efficacy, ns-410 nm plus H2O2 compared to CW-410 nm plus H2O2” value ([2]; FIG. 6) of the same compound?
Answer: The value was “significantly more effective”.

Question: And the “reduction of bacterial burden” value [2, 6]?
Answer: Its value is no less than 3 log 10 reduction.

Question: And the “reduction of bacterial burden” value ([2]; ns-410 nm (15 J/cm2) in combination with H2O2 22 mM)?
Answer: The value was “approximately four”.

Question: And the “reduction of bacterial burden” value ([2]; ns-430 nm combined with H2O2 22 mM)?
Answer: Its value is “around 99%”.

Question: What about the “reduction of bacterial burden” value ([2]; ns-450 or ns-460 nm combined with H2O2 22 mM) of the same compound?
Answer: The value was “around 90%”.

Question: What about the “reduction of bacterial burden” value ([2]; ns-470 nm combined with H2O2 22 mM) of the same compound?
Answer: The value was “around 50%”.

Question: And the antimicrobial effect ([2]; ns-480 nm combined with H2O2 22 mM)?
Answer: Its antimicrobial effect is “barely exerts an antimicrobial effect”.

Question: And the “killing efficacy, ns-410 nm plus H2O2 compared to CW-410 nm plus H2O2” value ([3]; FIG. 6)?
Answer: The value was “significantly more effective”.

Question: And the “reduction of bacterial burden” value [3, 6]?
Answer: The value was no less than 3 log 10 reduction.

Question: What about the eradication ([3]; H2O2 22 mM combined with 410 nm exposure (15 J/cm2)) of the same compound?
Answer: The eradication was “total eradication”.

Question: And the “antimicrobial effect (CFU ml-1)” value ([3]; H2O2 alone, 22 mM)?
Answer: The value was “didn't exert any significant antimicrobial effect”.

Question: What about the “enhancement of the function of H2O2 after photoinactivation of catalase” value (Candida albicans SC5314; 410 nm exposure then H2O2, FIG. 11) of the same compound?
Answer: Its value is “more than five”.

Question: And the “killing effect (CFU ml-1)” value (Candida albicans SC5314; H2O2 alone, 44 mM (0.15%), 1.5-hour incubation, stationary-phase)?
Answer: Its value is “doesn't exert significant killing effect”.

Question: What about the “eradication (time-killing, CFU)” value (Candida albicans SC5314; low-concentration H2O2 after 410 nm exposure, FIG. 11) of the same compound?
Answer: Its value is “eradication was achieved”.

Question: What about the eradication (Candida albicans SC5314; ns-410, ns-420 or ns-430 combined with H2O2 44 mM) of the same compound?
Answer: The eradication was “total eradication”.

Question: And the “reduction of fungal burden” value (Candida albicans SC5314; ns-450 or ns-480 nm combined with H2O2 44 mM)?
Answer: The value was “reduced a similar amount of fungal burden as H2O2-alone”.

Question: And the reduction of burden (Candida albicans SC5314; ns-light (24 J/cm^2) in combination with H2O2 44 mM)?
Answer: The reduction of burden was “around four”.

Question: What about the “effect of photoinactivation of catalase on killing by H2O2 (PrestoBlue fluorescence)” value (CASC5314) of the same compound?
Answer: Its value is “always boosts the killing effect”.

Question: And the “killing by synergistic therapy (PrestoBlue)” value (clinical fungal isolates)?
Answer: The value was “significant killing was consistently found”.

Question: Which “enhancement of killing in combination-treated group” value (E. coli BW25113 [4]) does the source give for `NC[C@H]1O[C@H](O[C@H]2[C@H](O)[C@@H](O[C@H]3O[C@H](CO)[C@@H](O)[C@H](N)[C@H]3O)[C@H](N)C[C@@H]2N)[C@H](N)C[C@@H]1O` [tobramycin, Tobramycin] here?
Answer: The value was “More than 100 times”.

Question: And the “enhanced killing effect in combination-treated group” value [5]?
Answer: The value was “did not produce any enhanced killing effect”.
